# Data as given in US7534871B2, “Preparation and use of carbohydrate-based bicyclic ring structures with antimicrobial and cytostatic activity” (Kemin Pharma B.V.B.A., priority 2004, dated 2009).
# Key:
# [1] = system: murine leukemia cells (L1210/0); assay: Cytostatic activity: inhibition of proliferation of L1210/0 cells; format: cell-based; conditions: Mus musculus, L1210/0; 50% inhibitory concentration, cell proliferation; read-out: IC50 L1210/0
# Method: (§1) The compounds were tested for anti-tumor activity via the inhibitory effects on the proliferation of murine leukemia cells (L1210/0), murine mammary carcinoma cells (FM3A), human T-lymphocyte cells (Molt4/C8, CEM/0) and human cervix carcinoma cells (HeLa).
# [2] = system: murine mammary carcinoma cells (FM3A); assay: Cytostatic activity: inhibition of proliferation of FM3A cells; format: cell-based; conditions: Mus musculus, 50% inhibitory concentration, cell proliferation, read-out: IC50 FM3A/0
# Method: as §1
# HEL cells = assay: Cytotoxicity: alteration of cell morphology (MCC); format: cell-based, human; conditions: minimum cytotoxic concentration that causes a microscopically detectable alteration of cell morphology
# [3] = system: human T-lymphocyte cells (CEM/0); assay: Cytostatic activity: inhibition of proliferation of CEM/0 cells; format: cell-based; conditions: CCRF-CEM, 50% inhibitory concentration, cell proliferation, read-out: IC50 CEM/0
# Method: as §1
# HSV-1 (KOS) = assay: Anti-viral activity: HSV-1-induced cytopathicity in human embryo fibroblast E6SM cell cultures; format: cell-based, herpes simplex virus (HSV); conditions: Human alphaherpesvirus 1, 50%
# [4] = system: human T-lymphocyte cells (Molt4/C8); assay: Cytostatic activity: inhibition of proliferation of Molt4/C8 cells; format: cell-based; conditions: Molt4/C8, 50% inhibitory concentration, cell proliferation, read-out: IC50 Molt4/C8
# Method: as §1
# CMV Davis strain = assay: Anti-CMV activity: plaque reduction in HEL cells, Davis strain; format: cell-based, human cytomegalovirus (CMV); conditions: Human betaherpesvirus 5, HEL; Table 6; reduce virus plaque formation by 50%; virus input 100 PFU; read-out: Anti-CMV activity IC50 Davis strain
# [5] = Cytotoxicity: inhibition of HEL cell growth (CC50); format: cell-based; conditions: human; concentration required to reduce cell growth by 50%; HEL cells, three days
# Method: The medium was then replaced by MEM containing various concentrations of the test compound. After three days incubation at 37° C., when the cell monolayer was 70% confluent, the cell number was determined with the Coulter counter. The minimum cytotoxic concentration was defined as the concentration required to reduce cell growth by 50%.
# VZV YS = assay: Anti-viral activity: VZV-induced plaque formation in HEL cell cultures, YS strain; format: cell-based, varicella zoster virus (VZV); conditions: Human alphaherpesvirus 3, VZV-induced plaque formation in human embryonic lung HEL cell cultures, 50%
# VZV OKA = assay: microbe, parasite or virus in culture; format: cell-based, varicella zoster virus (VZV); conditions: Human alphaherpesvirus 3, HEL, read-out: EC50 VZV (HEL) OKA
# CMV AD-169 strain = assay: Anti-CMV activity: plaque reduction in HEL cells, AD-169 strain; format: cell-based, human cytomegalovirus (CMV); conditions: Human betaherpesvirus 5, AD169, HEL; Table 6; reduce virus plaque formation by 50%; virus input 100 PFU; read-out: Anti-CMV activity IC50 AD-169 strain
# HSV-2 (G) = assay: Anti-viral activity: HSV-2-induced cytopathicity in human embryo fibroblast E6SM cell cultures; format: cell-based, herpes simplex virus (HSV); conditions: Human alphaherpesvirus 2, 50%
# VV = assay: microbe, parasite or virus in culture; format: cell-based; conditions: Orthopoxvirus vaccinia, E6SM, read-out: EC50 VV (E6SM)
# [6] = system: human cervix carcinoma cells (HeLa); assay: Cytostatic activity: inhibition of proliferation of HeLa cells; format: cell-based; conditions: 50% inhibitory concentration, cell proliferation
# Method: as §1
Structure (SMILES),IC50 [1],IC50 [2],Cytotoxicity Cell morphology (MCC) (HEL cells),IC50 [3],EC50 (HSV-1 (KOS)),IC50 [4],IC50 (CMV Davis strain),CC50 at 3 days [5],EC50 (VZV YS),EC50 (VZV OKA),IC50 (CMV AD-169 strain),EC50 (HSV-2 (G)),EC50 (VV),IC50 [6]
CO[C@@H]1[C@@H](OC)[C@H](Sc2ccccc2)O[C@@H]2CO[C@@H](c3ccccc3)O[C@@H]12 [KPE00001045],> 200 mg/L,> 200 mg/L,20 μg/ml,> 200 mg/L,> 3.2 mg/L,> 200 mg/L,> 5 mg/L,50 mg/L,> 2 mg/L,> 2 mg/L,> 5 mg/L,> 3.2 mg/L,> 3.2 mg/L,
O[C@@H]1[C@@H](O)[C@H](Sc2ccccc2)O[C@@H]2CO[C@@H](c3ccccc3)O[C@@H]12 [KPE00001048],103 ± 10 mg/L,171 ± 41 mg/L,>50 μg/ml,75 ± 31 mg/L,> 80 mg/L,78 ± 12 mg/L,35 mg/L,> 50 mg/L,> 50 mg/L,> 50 mg/L,33 mg/L,> 80 mg/L,> 80 mg/L,
CCO[C@@H]1[C@@H](OCC)[C@H](Sc2ccccc2)O[C@@H]2CO[C@@H](c3ccccc3)O[C@@H]12 [KPE00001050],> 200 mg/L,> 200 mg/L,>50 μg/ml,> 200 mg/L,> 3.2 mg/L,> 200 mg/L,> 50 mg/L,> 50 mg/L,> 5 mg/L,> 5 mg/L,> 50 mg/L,> 3.2 mg/L,> 3.2 mg/L,> 200 mg/L
